Where two headings read alike, the source gives them in different places.
Assays:
[1] = system: verschiedene Bakterienstämme; assay: Bacteria test following modified ISO 22196, photodynamic effect of a SolGel coating on different bacterial strains; type: cell-based; conditions: Rezeptur 5 coating on Melamin, 2 mM, 4 h
Excerpt: (§1) Die Bestimmung der antimikrobiellen Aktivität erfolgte nach einer modifizierten Version der ISO 22196:2011-08 ("Messung von antibakterieller Aktivität auf Kunststoff- und anderen porenfreien Oberflächen", Ausgabedatum: 2011-08).
(§2) Bei der Testdurchführung wurde ein dünner Flüssigkeitsfilm, in dem die Bakterien enthalten sind (1,25 x 10^4 /cm2), direkt auf die Probekörper (2,5 cm x 2,5 cm) aufgebracht. Direkt nach Beimpfung wurden von der Nullprobe die Bakterien von den Probekörperoberflächen mittels Ultraschall und Vortexen abgelöst und die Keimzahl (KBE (engl. CFU), Kolonie-bildende Einheit) bestimmt (t0-Wert). Ein weiterer Satz Nullproben und antimikrobiell ausgestatteter Proben wurden mit Bakterien im Flüssigkeitsfilm bei Raumtemperatur inkubiert. Nach 4 h wurden überlebende Bakterien von den Probekörperoberflächen mittels Ultraschall und Vortexen abgelöst und die Keimzahl bestimmt (t4-Wert).
(§3) Im Unterschied zu der in der ISO 22196:2011-08 beschriebenen Methode wurde das Inokulum nicht mit einer Folie abgedeckt und die Inkubationszeit von 24 auf 4 Stunden reduziert. Weiterhin wurden die Platten der Proben 3 und 4 mit Licht mit einer Intensität von 300 µW/cm2 belichtet.
Die Ergebnisse sind Tabelle 53 dargestellt. Tabelle 53: Photodynamische Wirkung einer SolGel Beschichtung gegen verschiedene Bakterienstämme

verschiedene Virenstämme = assay: Virus test following ISO 21702, photodynamic effect of a SolGel coating on different virus strains; conditions: read-out: Log10 Reduktion Probe
Bakterien [2] = assay: Photostability: bacteria test (ISO 22196) after simulated long-term illumination (18 mW/cm^2, 405 nm); type: cell-based; conditions: 4 h, Rezeptur 2 (Borsäure) on Melamin, 2 mM
Excerpt: as §1, §2, §3
Zur Bewertung der Photostabilität des Farbstoffs S-25a (2 mM) in der Beschichtung wurden beschichtete Flächen mit 18 mW/cm^2 (405 nm, ca. 200 Fache Raumlichtintensität, Zeitrafferversuch) bestrahlt. So wurde eine Echtzeit-Photostabilität von 2 Jahren simuliert.
Der Bakterientest wurde in Anlehnung an ISO 22196 nach oben beschriebener Methode durchgeführt. Die Ergebnisse sind in der Tabelle 61 zusammengefasst. Tabelle 61: Mikrobiologische Wirksamkeit nach simulierter Photobelastung für 1, 2, 3, 6, 12 und 24 Monate

I. monocytoqenes = assay: Bacteria test following modified ISO 22196, photodynamic effect of different photocatalysts in the SolGel coating on I. monocytoqenes; type: cell-based; conditions: Rezeptur 4 nach Beispiel 5 on Melamin; 4 h, dark
Excerpt: as §1, §2, §3
(§4) Der Bakterientest wurde in Anlehnung an ISO 22196 nach oben beschriebener Methode durchgeführt. Die Ergebnisse sind Tabelle 57a bis 57b dargestellt. Tabelle 57a: Photodynamische Wirkung verschiedener Katalysatoren in der SolGel Beschichtung gegen S.aureus

Bakterien [3] = assay: Durability: bacteria test (ISO 22196) after immersion in Incidin Plus (10% in water) or isopropanol (70% in water); type: cell-based; conditions: 4 h, Rezeptur 2 (Borsäure) on Melamin, 2 mM
Excerpt: as §1, §2, §3
Um die Haltbarkeit der Beschichtung bzw. das Auswaschen des Farbstoffs gegen gängige Reinigungs- und Desinfektionsmitteln, wurden damit Immersionstests in Incidin Plus (Ecolab GmbH, 10% in Wasser, Farbstoff S-25a) und Isopropanol (70% in Wasser) durchgeführt.
Der Bakterientest wurde in Anlehnung an ISO 22196 nach oben beschriebener Methode durchgeführt. Die Ergebnisse sind in den Tabellen 59 und 60 zusammengefasst. Tabelle 59: Mikrobiologische Wirksamkeit (Iog10 Reduktion) nach X h Immersion in Incidin Plus (10% in Wasser).

Bakterien [4] = assay: Thermal ageing: bacteria test (ISO 22196) after accelerated ageing ASTM F1980-16 at 60°C for 4 weeks; type: cell-based; conditions: 4 h, beschleunigte Alterung 60°C, Rezeptur 2 (Borsäure) on Melamin, 2 mM
Excerpt: as §1, §2, §3
Zur Beurteilung der Schicht auf Alterungsprozesse, wurde eine beschleunigte Alterung nach ASTM F1980-16 bei 60°C für 4 Wochen durchgeführt.
Der Bakterientest wurde in Anlehnung an ISO 22196 nach oben beschriebener Methode durchgeführt. Die Ergebnisse sind in der Tabelle 62 zusammengefasst. Tabelle 62: Mikrobiologische Wirksamkeit (log10 Reduktion) bei beschleunigter Alterung (60°C).

Bakterien [5] = assay: Room light tests (Raumlichtversuche): antimicrobial efficacy at 10 µW/cm^2 for 24 h; type: cell-based; conditions: Farbstoff 5 mM, coating Rezeptur 3, Beispiel 2a (2,5 eq aqueous boric acid, 50 mM)
Procedure: Um die antimikrobielle Wirksamkeit in einem realen Szenario abzuschätzen, wurden sogenannte Raumlichtversuche durchgeführt. Dazu wurden die mit Bakterien versetzten Probenträger mit einer, für Innenräume repräsentativen Lichtintensität von 10 µW/cm^2 für einen Zeitraum von 24 h bestrahlt.
Herstellung der Beschichtung erfolgte gemäß Beispiel 2a (2,5 eq wässrige Borsäure, 50 mM), mit Rezeptur 3. Die Ergebnisse sind in der Tabelle 63 zusammengefasst. Tabelle 63: Antimikrobielle Wirksamkeit bei Raumlichtbedingungen

S. enterica = assay: Bacteria test following modified ISO 22196, photodynamic effect of different photocatalysts in the SolGel coating on S. enterica; type: cell-based; conditions: Rezeptur 4 nach Beispiel 5 on Melamin, 4 h
Excerpt: as §1, §2, §3, §4

S.aureus = type: cell-based; conditions: for Log10 Reduktion Dunkelkontrolle 1 mM / Log10 Reduktion Dunkelkontrolle 2 mM: dark; for Log10 Reduktion Wirksamkeit 1 mM / Log10 Reduktion Wirksamkeit 2 mM: light
[6] = Rezeptur 2, Verdünnung mit IPA 1:2
[7] = Rezeptur 2, Verdünnung mit IPA 1:5
[8] = Rezeptur 2, Verdünnung mit IPA 1:8

Q: With `CC(C)(O)c1cc[n+](CC2=Cc3cccc4cccc(c34)C2=O)cc1` [S-25a] as the compound, how does the log reduction at 2000 µM ([1]; Acinetobacter baumannii, ATCC15308, A. baumanii ATCC 15308 (Gram negativ), 300 µW/cm2, read-out: Log10 Reduktion Probe) read?
A: > 4

Q: What about the log reduction at 2000 µM ([1]; Acinetobacter baumannii, ATCC15308, A. baumanii ATCC 15308 (Gram negativ), dark, read-out: Log10 Reduktion Dunkelkontrolle) of the same compound?
A: 0.1

Q: And the log reduction at 2000 µM ([1]; Enterococcus faecium, E.faecium EDCC 5271 (Gram positiv), 300 µW/cm2, read-out: Log10 Reduktion Probe)?
A: > 4

Q: And the log reduction at 2000 µM ([1]; Enterococcus faecium, E.faecium EDCC 5271 (Gram positiv), dark, read-out: Log10 Reduktion Dunkelkontrolle)?
A: 0

Q: And the log reduction at 2000 µM ([1]; Staphylococcus aureus, ATCC6538, S.aureus ATCC 6538 (Gram positiv), 300 µW/cm2, read-out: Log10 Reduktion Probe)?
A: > 4

Q: And the log reduction at 2000 µM ([1]; Staphylococcus aureus, ATCC6538, S.aureus ATCC 6538 (Gram positiv), dark, read-out: Log10 Reduktion Dunkelkontrolle)?
A: 0.1

Q: And the log reduction at 2000 µM (verschiedene Virenstämme; 83 min)?
A: 5.5

Q: And the log reduction at 2000 µM (verschiedene Virenstämme; Influenza A virus, H1N1, 83 min)?
A: 3.8

Q: What about the log reduction at 2000 µM (verschiedene Virenstämme; unidentified adenovirus, 83 min) of the same compound?
A: 2

Q: What about the log reduction at 2000 µM (Bakterien [2]; 2 Monate simulated, dark, read-out: Log10 Reduktion nach x Monaten simulierter Belastung: 2, Dunkelkontrolle) of the same compound?
A: 0.2

Q: And the log reduction at 2000 µM (Bakterien [2]; 3 Monate simulated, dark, read-out: Log10 Reduktion nach x Monaten simulierter Belastung: 3, Dunkelkontrolle)?
A: 0.2

Q: And the log reduction at 2000 µM (Bakterien [2]; 24 Monate simulated, dark, read-out: Log10 Reduktion nach x Monaten simulierter Belastung: 24, Dunkelkontrolle)?
A: 0.2

Q: What about the log reduction at 2000 µM (Bakterien [2]; pre-illumination 18 mW/cm^2, 405 nm, 0 Monate, read-out: Log10 Reduktion nach x Monaten simulierter Belastung: Start (0), Probe) of the same compound?
A: 4.7

Q: And the log reduction at 2000 µM (Bakterien [2]; pre-illumination 18 mW/cm^2, 405 nm, 1 Monat simulated, read-out: Log10 Reduktion nach x Monaten simulierter Belastung: 1, Probe)?
A: 4.6

Q: And the log reduction at 2000 µM (Bakterien [2]; pre-illumination 18 mW/cm^2, 405 nm, 2 Monate simulated, read-out: Log10 Reduktion nach x Monaten simulierter Belastung: 2, Probe)?
A: 4.3

Q: And the log reduction at 2000 µM (Bakterien [2]; pre-illumination 18 mW/cm^2, 405 nm, 3 Monate simulated, read-out: Log10 Reduktion nach x Monaten simulierter Belastung: 3, Probe)?
A: 4.2

Q: And the log reduction at 2000 µM (Bakterien [2]; pre-illumination 18 mW/cm^2, 405 nm, 6 Monate simulated, read-out: Log10 Reduktion nach x Monaten simulierter Belastung: 6, Probe)?
A: 4.3

Q: And the log reduction at 2000 µM (Bakterien [2]; pre-illumination 18 mW/cm^2, 405 nm, 12 Monate simulated, read-out: Log10 Reduktion nach x Monaten simulierter Belastung: 12, Probe)?
A: 4.3

Q: And the log reduction at 2000 µM (Bakterien [2]; pre-illumination 18 mW/cm^2, 405 nm, 24 Monate simulated, read-out: Log10 Reduktion nach x Monaten simulierter Belastung: 24, Probe)?
A: 4.3

Q: And the “I. monocytoqenes Log10 Reduktion Dunkelkontrolle” value (I. monocytoqenes)?
A: 0,0±0,1

Q: What about the log reduction at 2000 µM (Bakterien [3]; Immersion in Incidin Plus (10% in Wasser) 0 h, read-out: Log10 Reduktion nach 0 h, Probe) of the same compound?
A: 3.7

Q: What about the log reduction at 2000 µM (Bakterien [3]; Immersion in Incidin Plus (10% in Wasser) 1 h, dark, read-out: Log10 Reduktion nach 1 h, Dunkelkontrolle) of the same compound?
A: 0.8

Q: What about the log reduction at 2000 µM (Bakterien [3]; Immersion in Incidin Plus (10% in Wasser) 1 h, read-out: Log10 Reduktion nach 1 h, Probe) of the same compound?
A: 2.6

Q: And the log reduction at 2000 µM (Bakterien [3]; Immersion in Incidin Plus (10% in Wasser) 2 h, read-out: Log10 Reduktion nach 2 h, Probe)?
A: 2.4

Q: And the log reduction at 2000 µM (Bakterien [3]; Immersion in Incidin Plus (10% in Wasser) 3 h, read-out: Log10 Reduktion nach 3 h, Probe)?
A: 1.4

Q: And the log reduction at 2000 µM (Bakterien [4]; 0 Wo, dark, read-out: Log10 Reduktion nach 0 Wo, Dunkelkontrolle)?
A: 0.1

Q: And the log reduction at 2000 µM (Bakterien [4]; 0 Wo, read-out: Log10 Reduktion nach 0 Wo, Probe)?
A: 3.9

Q: And the log reduction at 2000 µM (Bakterien [4]; 1 Wo, dark, read-out: Log10 Reduktion nach 1 Wo, Dunkelkontrolle)?
A: 0

Q: What about the log reduction at 2000 µM (Bakterien [4]; 1 Wo, read-out: Log10 Reduktion nach 1 Wo, Probe) of the same compound?
A: 3.8

Q: What about the log reduction at 2000 µM (Bakterien [4]; 2 Wo, dark, read-out: Log10 Reduktion nach 2 Wo, Dunkelkontrolle) of the same compound?
A: 0

Q: What about the log reduction at 2000 µM (Bakterien [4]; 2 Wo, read-out: Log10 Reduktion nach 2 Wo, Probe) of the same compound?
A: 3.4

Q: What about the log reduction at 2000 µM (Bakterien [4]; 3 Wo, dark, read-out: Log10 Reduktion nach 3 Wo, Dunkelkontrolle) of the same compound?
A: 0.3

Q: What about the log reduction at 2000 µM (Bakterien [4]; 3 Wo, read-out: Log10 Reduktion nach 3 Wo, Probe) of the same compound?
A: 3.3

Q: What about the log reduction at 2000 µM (Bakterien [4]; 4 Wo, dark, read-out: Log10 Reduktion nach 4 Wo, Dunkelkontrolle) of the same compound?
A: 0.4

Q: What about the log reduction at 2000 µM (Bakterien [4]; 4 Wo, read-out: Log10 Reduktion nach 4 Wo, Probe) of the same compound?
A: 2.8

Q: What about the log reduction at 5000 µM (Bakterien [5]; 24 h, dark control, read-out: Log10 Reduktion Dunkelkontrolle) of the same compound?
A: 1.1

Q: And the log reduction at 5000 µM (Bakterien [5]; illuminated 10 µW/cm^2 for 24 h, read-out: Log10 Reduktion 24 h)?
A: 2.6

Q: And the “S. enterica Log10 Reduktion Probe” value (S. enterica; 300 µW/cm2)?
A: 2,5±0,4

Q: And the “S. enterica Log10 Reduktion Dunkelkontrolle” value (S. enterica; dark)?
A: 0,0±0,1

Q: What about the “Log10 Reduktion Dunkelkontrolle 1 mM” value (S.aureus; [6]) of the same compound?
A: 0,1±0,4

Q: And the “Log10 Reduktion Dunkelkontrolle 2 mM” value (S.aureus; [6])?
A: 0,0±0,0

Q: What about the “Log10 Reduktion Wirksamkeit 1 mM” value (S.aureus; [6]) of the same compound?
A: 3,0±0,2

Q: What about the “Log10 Reduktion Wirksamkeit 2 mM” value (S.aureus; [6]) of the same compound?
A: 3,3±0,5

Q: And the “Log10 Reduktion Dunkelkontrolle 1 mM” value (S.aureus; [7])?
A: 0,0±0,2

Q: And the “Log10 Reduktion Dunkelkontrolle 2 mM” value (S.aureus; [7])?
A: 0,1±0,1

Q: What about the “Log10 Reduktion Wirksamkeit 1 mM” value (S.aureus; [7]) of the same compound?
A: 2,0±0,2

Q: What about the “Log10 Reduktion Wirksamkeit 2 mM” value (S.aureus; [7]) of the same compound?
A: 2,8±0,2

Q: What about the “Log10 Reduktion Dunkelkontrolle 1 mM” value (S.aureus; [8]) of the same compound?
A: 0,0±0,2

Q: What about the “Log10 Reduktion Dunkelkontrolle 2 mM” value (S.aureus; [8]) of the same compound?
A: 0,0±0,1

Q: And the “Log10 Reduktion Wirksamkeit 1 mM” value (S.aureus; [8])?
A: 1,5±0,1

Q: What about the “Log10 Reduktion Wirksamkeit 2 mM” value (S.aureus; [8]) of the same compound?
A: 2,7±0,6
